Laboratory results as given in patent US10648035B2, “Methods and compositions for diagnosing and treating gastric cancer” (THE JOHNS HOPKINS UNIVERSITY, priority 2012, dated 2020).

Key:
[1] = system: claudin-11 mRNA expression in AGS gastric cancer cells; experiment: Claudin-11 mRNA re-expression in AGS cells after demethylating treatment (qRT-PCR); format: cell-based; parameters: claudin-11 mRNA expression, ratio of treated vs. untreated cells: dose or concentration left out as unconfirmed
Description: FIG. 23. Claudin-11 mRNA re-expression in AGS gastric cancer cells after treatment with 5-Aza-dC. AGS is a gastric cancer cell line manifesting hypermethylation of the claudin-11 promoter in conjunction with absent claudin-11 mRNA expression (FIG. 17). Total RNAs from AGS cells before and after 5-aza-2-deoxycytidine treatment were subjected to quantitative real-time RT-PCR analysis. The Y-axis represents the expression ratio of 5-aza-dC-treated vs. untreated cells. […] This restoration of claudin-11 expression after 5-Aza-dC treatment supports our hypothesis that claudin-11 is silenced by promoter hypermethylation in GC cells.
[…] Total RNAs extracted before vs. after treatment were subjected to qRT-PCR for CLDN11.

Barx1 expression in AGS = experiment: Barx1 mRNA re-expression in AGS after 5-Aza-dC treatment; format: cell-based; conditions: AGS cells after treatment

SMILES: Nc1ncn([C@H]2C[C@H](O)[C@@H](CO)O2)c(=O)n1 [5-Aza-dC, 5-aza-2-deoxycytidine]
- CLDN11 mRNA re-expression ([1]; 1 μM, varying time intervals): CLDN11 mRNA became more re-expressed
- claudin-11 mRNA expression, ratio of treated vs. untreated cells ([1]; first 72 hrs. of treatment): time-dependent increase in claudin-11 mRNA expression
- Barx1 mRNA re-expression (Barx1 expression in AGS): restoration of Barx1 expression
- Barx1 mRNA re-expression (Barx1 expression in AGS; listed as 5-AzaC): BARX mRNA re-expression
